Laboratory results reported in ChEMBL document CHEMBL1201862, “PubChem BioAssay data set” (2004).
Where “and” joins values, the source holds several entries; their conditions need not be identical. Equal values may be shown once.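 Values below derive from 48-hour exposures of cells grown in 96-well plates, with endpoints linearly interpolated between the two concentrations bracketing the appropriate inhibition level. GI50 is the concentration that inhibits growth by half.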 Calls of active or inactive are those of the source. Rule as the data show it: active = GI50 up to about 1.1 µM and inactive = higher.

Tests used:
Test in all cases: growth of human tumour cells (NCI), 48 h
CAKI-1 = test system: CAKI-1
EKVX = test system: EKVX
HCT-116 = test system: HCT-116
HOP-92 = test system: HOP-92
K562 = test system: K562
KM12 = test system: KM12
M14 = test system: M14
MOLT-4 = test system: MOLT-4
OVCAR-3 = test system: OVCAR-3
OVCAR-5 = test system: OVCAR-5
SF-268 = test system: SF-268
SK-MEL-2 = test system: SK-MEL-2
SK-OV-3 = test system: SK-OV-3
SNB-19 = test system: SNB-19
SNB-75 = test system: SNB-75
HL-60 = test system: HL-60
SF-295 = test system: SF-295

SMILES: COc1ccc2nc(NC(=O)C(=O)CC(=O)c3ccc([N+](=O)[O-])cc3)sc2c1
- GI50 (CAKI-1): > 100 µM (inactive)
- GI50 (EKVX): > 100 µM (inactive)
- GI50 (HCT-116): > 100 µM (inactive)
- GI50 (HOP-92): > 100 µM (inactive)
- GI50 (K562): > 100 µM (inactive)
- GI50 (KM12): > 100 µM (inactive)
- GI50 (M14): > 100 µM (inactive)
- GI50 (MOLT-4): > 100 µM (inactive)
- GI50 (OVCAR-3): > 100 µM (inactive)
- GI50 (OVCAR-5): > 100 µM (inactive)
- GI50 (SF-268): > 100 µM (inactive)
- GI50 (SK-MEL-2): > 100 µM (inactive)
- GI50 (SK-OV-3): > 100 µM (inactive)
- GI50 (SNB-19): > 100 µM (inactive)
- GI50 (SNB-75): > 100 µM (inactive)

SMILES: COc1cc2c(cc1C)[n+]([O-])c(C)c(C(=O)C/C(=N/NC(=O)C[N+](C)(C)C)C(=O)Nc1cccc(Cl)c1C)[n+]2[O-]
- GI50 (CAKI-1): > 100 µM (inactive)
- GI50 (EKVX): > 100 µM (inactive)
- GI50 (HCT-116): > 100 µM (inactive)
- GI50 (HL-60): > 100 µM (inactive)
- GI50 (HOP-92): > 100 µM (inactive)
- GI50 (K562): > 100 µM (inactive)
- GI50 (KM12): > 100 µM (inactive)
- GI50 (M14): > 100 µM (inactive)
- GI50 (MOLT-4): > 100 µM (inactive)
- GI50 (OVCAR-3): > 100 µM (inactive)
- GI50 (OVCAR-5): > 100 µM (inactive)
- GI50 (SF-268): > 100 µM (inactive)
- GI50 (SF-295): > 100 µM (inactive)
- GI50 (SK-MEL-2): > 100 µM (inactive)
- GI50 (SNB-19): > 100 µM (inactive)
- GI50 (SNB-75): > 100 µM (inactive)

SMILES: Cc1cc(C)c(C(=O)C(C)C(c2ccccc2)c2ccc(Cl)cc2)c(C)c1 (stereo not drawn)
- GI50 (CAKI-1): > 100 µM (inactive)
- GI50 (EKVX): > 100 µM (inactive)
- GI50 (HCT-116): > 100 µM (inactive) and 56.1 µM (inactive)
- GI50 (K562): 50.5 µM (inactive) and 48.8 µM (inactive)
- GI50 (KM12): > 100 µM (inactive) and 96.4 µM (inactive)
- GI50 (M14): 82.8 µM (inactive) and 75.7 µM (inactive)
- GI50 (MOLT-4): 65.9 µM (inactive) and 50.7 µM (inactive)
- GI50 (OVCAR-3): > 100 µM (inactive)
- GI50 (SF-268): > 100 µM (inactive)
- GI50 (SF-295): > 100 µM (inactive)
- GI50 (SK-OV-3): > 100 µM (inactive)
- GI50 (SNB-75): > 100 µM (inactive)

SMILES: COc1ccc(C/C(=N/O)C(=O)NCCc2cc(Br)c(OCCCN(C)C)c(Br)c2)cc1Br [APLYSAMINE 2]
- GI50 (CAKI-1): 25.6 µM (inactive)
- GI50 (EKVX): 19.6 µM (inactive)
- GI50 (HCT-116): 14.5 µM (inactive)
- GI50 (HL-60): 12.3 µM (inactive)
- GI50 (KM12): 16.6 µM (inactive)
- GI50 (M14): 17.7 µM (inactive)
- GI50 (OVCAR-3): 21.6 µM (inactive)
- GI50 (OVCAR-5): 22.3 µM (inactive)
- GI50 (SF-268): 18.5 µM (inactive)
- GI50 (SF-295): 18.8 µM (inactive)
- GI50 (SK-MEL-2): 20.1 µM (inactive)
- GI50 (SNB-19): 16.3 µM (inactive)
- GI50 (SNB-75): 18.9 µM (inactive)

SMILES: CCCN(CCC)c1c([N+](=O)[O-])cc(C(=O)N(CCO)CCO)cc1[N+](=O)[O-]
- GI50 (CAKI-1): > 100 µM (inactive)
- GI50 (EKVX): 57.4 µM (inactive)
- GI50 (HCT-116): > 100 µM (inactive)
- GI50 (HL-60): > 100 µM (inactive)
- GI50 (K562): 61.4 µM (inactive)
- GI50 (KM12): > 100 µM (inactive)
- GI50 (M14): > 100 µM (inactive)
- GI50 (MOLT-4): > 100 µM (inactive)
- GI50 (OVCAR-3): > 100 µM (inactive)
- GI50 (OVCAR-5): > 100 µM (inactive)
- GI50 (SF-268): > 100 µM (inactive)
- GI50 (SF-295): > 100 µM (inactive)
- GI50 (SK-MEL-2): > 100 µM (inactive)
- GI50 (SK-OV-3): > 100 µM (inactive)
- GI50 (SNB-75): > 100 µM (inactive)

SMILES: C=C1C(=O)OC2C1C(OC(=O)/C(=C/C)COC(C)=O)CC1(CO1)C1C(OC(=O)/C(=C/C)CO)C=C(C)C21 (stereo not drawn)
- GI50 (CAKI-1): 0.502 µM (active)
- GI50 (EKVX): 2 µM (inactive)
- GI50 (HCT-116): 1.63 µM (inactive)
- GI50 (HL-60): 0.446 µM (active)
- GI50 (K562): 1.6 µM (inactive)
- GI50 (KM12): 3.94 µM (inactive)
- GI50 (M14): 1.67 µM (inactive)
- GI50 (MOLT-4): 0.378 µM (active)
- GI50 (OVCAR-3): 1.14 µM (inactive)
- GI50 (OVCAR-5): 12.2 µM (inactive)
- GI50 (SF-268): 2.75 µM (inactive)
- GI50 (SF-295): 5.16 µM (inactive)
- GI50 (SK-MEL-2): 1.87 µM (inactive)
- GI50 (SK-OV-3): 17.1 µM (inactive)
- GI50 (SNB-19): 3.36 µM (inactive)
- GI50 (SNB-75): 2.26 µM (inactive)

SMILES: C[N+](C)(C)CC(=O)N/N=C(/C(=O)Nc1ccc(Br)cc1)C1C(=O)NC(=O)NC1=O
- GI50 (CAKI-1): > 100 µM (inactive)
- GI50 (EKVX): > 100 µM (inactive)
- GI50 (HCT-116): > 100 µM (inactive)
- GI50 (HL-60): > 100 µM (inactive)
- GI50 (K562): > 100 µM (inactive)
- GI50 (KM12): > 100 µM (inactive)
- GI50 (M14): > 100 µM (inactive)
- GI50 (MOLT-4): > 100 µM (inactive)
- GI50 (OVCAR-3): > 100 µM (inactive)
- GI50 (OVCAR-5): > 100 µM (inactive)
- GI50 (SF-268): > 100 µM (inactive)
- GI50 (SF-295): > 100 µM (inactive)
- GI50 (SK-MEL-2): > 100 µM (inactive)
- GI50 (SK-OV-3): > 100 µM (inactive)
- GI50 (SNB-19): > 100 µM (inactive)
- GI50 (SNB-75): > 100 µM (inactive)
